In assay [1] the target is T1, PDE3B (Homo sapiens, UniProt Q13370). Briefly: SPR (Biacore S51), competition with Epac-1 peptides on immobilized PDE3B peptide. Format: binding. Particulars: read-out: % maximal inhibition.
Assay [2] addresses T1, PDE3B. As to the kind of experiment: SPR (Biacore S51), direct binding and competition with Epac-1 peptides; cAMP rise in HAECs lost on PDE3B siRNA. Particulars: read-out: % maximal inhibition.

Each structure is given as a SMILES string.

T1 sequence (Q13370 1-25): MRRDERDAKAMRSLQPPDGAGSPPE
T1 sequence (O95398 whole entry partner): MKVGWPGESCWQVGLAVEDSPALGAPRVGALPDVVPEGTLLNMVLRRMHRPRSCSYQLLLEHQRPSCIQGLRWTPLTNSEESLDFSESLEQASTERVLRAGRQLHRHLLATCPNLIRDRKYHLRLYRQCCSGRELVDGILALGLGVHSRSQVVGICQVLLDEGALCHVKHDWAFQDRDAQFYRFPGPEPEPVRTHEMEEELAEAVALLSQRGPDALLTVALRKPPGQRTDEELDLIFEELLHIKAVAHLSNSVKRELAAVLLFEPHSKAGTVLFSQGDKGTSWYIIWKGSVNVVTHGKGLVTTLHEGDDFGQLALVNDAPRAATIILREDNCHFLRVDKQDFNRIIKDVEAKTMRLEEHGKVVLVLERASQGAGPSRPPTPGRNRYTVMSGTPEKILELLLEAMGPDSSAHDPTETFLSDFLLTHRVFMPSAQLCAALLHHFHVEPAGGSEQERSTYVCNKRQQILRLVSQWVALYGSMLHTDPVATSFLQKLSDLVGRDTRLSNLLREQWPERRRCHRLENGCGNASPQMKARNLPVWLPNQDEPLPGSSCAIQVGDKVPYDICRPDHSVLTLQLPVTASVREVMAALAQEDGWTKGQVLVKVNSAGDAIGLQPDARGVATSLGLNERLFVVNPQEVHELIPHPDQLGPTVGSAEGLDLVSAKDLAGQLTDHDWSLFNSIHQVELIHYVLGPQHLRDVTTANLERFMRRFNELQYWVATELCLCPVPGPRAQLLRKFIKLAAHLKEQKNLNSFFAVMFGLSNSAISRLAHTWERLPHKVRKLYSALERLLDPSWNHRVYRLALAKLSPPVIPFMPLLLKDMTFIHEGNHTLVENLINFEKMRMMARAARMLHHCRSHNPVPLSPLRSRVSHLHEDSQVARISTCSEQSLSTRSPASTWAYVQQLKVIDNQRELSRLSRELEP

Consider `CN(C(=O)CCCOc1ccc2[nH]c(=O)ccc2c1)C1CCCCC1` [cilostamide], for which, in assay [1], the Emax is 63%.

Consider `O=C1CCc2cc(OCCCCc3nnnn3C3CCCCC3)ccc2N1` [cilostazol, 6-[4-(1-cyclohexyl-1H-tetrazol-5-yl)butyloxy]-3,4-dihydroquinolin-2-(1H)-one], for which the Emax in assay [2] turned out to be 70%.

Regarding `Cc1[nH]c(=O)c(C#N)cc1-c1ccncc1` [milrinone], in assay [1], the Emax came to 60%.

For the origin of these results see PMC4504471, “Cilostazol Induces PGI2 Production via Activation of the Downstream Epac-1/Rap1 Signaling Cascade to Increase Intracellular Calcium by PLCε and to Activate p44/42 MAPK in Human Aortic Endothelial Cells” (PLoS ONE, 2015).
